Source: US10800790B2, “Sesquiterpenoid STAT3 inhibitors” (University of Hawaii, priority 2013, dated 2020)

Tests used:
pSTAT5 = assay: Immunoblotting of EGF-induced pSTAT5 in NIH3T3/hEGFR; conditions: 5 micromolar
Procedure: (§2) To determine the specificity of agents, mouse fibroblasts over-expressing the human EGF receptor (NIH3T3/hEGFR) were treated with the compounds and stimulated with EGF.

[1] = system: normal NIH3T3 mouse fibroblasts; assay: CyQuant cell viability/proliferation assay, NIH3T3; type: cell-based; parameters: key to Activity against 3T3: +, active; −, no activity; +/−, poorly active; conditions: Table 1 grade; Table 1/FIG. 2 compound numbering
Procedure: (§1) The cell viability assay was performed as previously reported (Zhang X, et al. (2010)). Briefly, a 10 millimolar concentration stock solution in dimethylsulfoxide (DMSO) of the tested molecule was first prepared. Next, the stock solution was diluted down to various working solutions in water. Thus, a formulation of the tested compound in a DMSO/water mixture was used to test for cell viability. (A novel small-molecule disrupts STAT3 SH2 domainphosphotyrosine interactions and STAT3-dependent tumor processes, Biochem Pharmacol 79:1398-1409; Zhao W, Jaganathan S, & Turkson J (2010), A cell-permeable STAT3 SH2 domain mimetic inhibits STAT3 activation and induces antitumor cell effects in vitro. J Biol Chem. 285:35855-35865). Cells (U251MG, MDA-MB-231 or NIH3T3) were obtained from ATCC (Manassas, Va.) and were cultured in 96-well plates at 2,000 cells per well for 24 h and were treated with compounds (5 micromolar concentration) for 72 h. Cell viabilty was determined using CyQuant assay, according to the manufacturer's (Invitrogen, CA, USA) instructions. Relative viability of the treated cells was normalized to the DMSO-treated control cells.

[2] = system: MDA-MB-231 breast cancer cells; assay: CyQuant cell viability/proliferation assay, MDA-MB-231; type: cell-based, human; parameters: key to Activity against 231: +, active; −, no activity; +/−, poorly active; conditions: Table 1 grade; Table 1/FIG. 2 compound numbering
Procedure: as §1

pSTAT1 = assay: Immunoblotting of EGF-induced pSTAT1 in NIH3T3/hEGFR; conditions: 5 micromolar
Procedure: as §2

[3] = target: T1, STAT3 (NIH3T3/v-Src nuclear extracts) (Mus musculus, UniProt P42227); assay: In vitro STAT3 DNA-binding activity/EMSA, nuclear extracts incubated with compound; type: biochemical; conditions: 5 micromolar, 30 min at room temperature
T1 construct: nuclear extracts prepared from v-Src-transformed mouse fibroblasts (NIH3T3/v-Src) containing active STAT3; endogenous in cells; host or cells: NIH3T3/v-Src mouse fibroblasts (nuclear extract)
T1 sequence (P42227 whole entry): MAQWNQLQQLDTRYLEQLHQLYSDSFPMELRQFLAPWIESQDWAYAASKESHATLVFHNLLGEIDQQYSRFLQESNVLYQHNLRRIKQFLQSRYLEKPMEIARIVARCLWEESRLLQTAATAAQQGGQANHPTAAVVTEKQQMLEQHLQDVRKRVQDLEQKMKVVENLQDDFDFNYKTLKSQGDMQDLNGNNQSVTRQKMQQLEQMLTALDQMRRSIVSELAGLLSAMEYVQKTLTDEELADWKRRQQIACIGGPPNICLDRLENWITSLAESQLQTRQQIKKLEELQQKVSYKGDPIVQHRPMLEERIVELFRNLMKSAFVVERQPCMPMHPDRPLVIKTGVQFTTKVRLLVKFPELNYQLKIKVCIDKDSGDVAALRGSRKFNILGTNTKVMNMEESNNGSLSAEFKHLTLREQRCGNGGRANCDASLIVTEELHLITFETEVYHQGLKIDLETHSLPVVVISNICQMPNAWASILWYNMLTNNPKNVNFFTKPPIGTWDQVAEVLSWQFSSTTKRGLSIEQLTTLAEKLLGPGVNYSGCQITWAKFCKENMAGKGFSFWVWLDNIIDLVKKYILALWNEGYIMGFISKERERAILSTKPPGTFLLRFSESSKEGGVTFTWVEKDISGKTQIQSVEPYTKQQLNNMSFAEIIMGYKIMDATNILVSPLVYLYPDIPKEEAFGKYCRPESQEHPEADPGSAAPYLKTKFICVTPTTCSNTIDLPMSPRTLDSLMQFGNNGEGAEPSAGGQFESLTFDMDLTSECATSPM
Procedure: To further determine the effects of the bioactive agents on STAT3 activity, nuclear extracts prepared from v-Src-transformed mouse fibroblasts (NIH3T3/v-Src) containing active STAT3 were directly incubated with 5 micromolar compounds for 30 min at room temperature prior to performing STAT3 DNA-binding activity in vitro with EMSA analysis. […] These studies indicate that agents directly interact with STAT3 and disrupt STAT3:STAT3 dimers, thereby inhibiting its DNA-binding activity.
Data are representative of 2-3 independent determinations.
Nuclear extract preparations and DNA-binding/electrophoretic mobility shift assay (EMSA) were carried out as previously described (Xu, supra). Nuclear extract preparations and DNA-binding activity/electrophoretic mobility shift assay (EMSA) were carried out as previously described. U251 MG and MDA-MB-231 cells culture were pretreated with different concentrations of the compounds for the indicated period and then harvested for nuclear extract preparation and DNA-binding assay with EMSA analysis. The ^32P-labeled oligonucleotide probe used was hSIE (high-affinity sis-inducible element) from the c-fos gene, m67 variant (5′-[…]-3′) that binds STAT3. Except where indicated, nuclear extracts were pre-incubated with compound for 30 min at room temperature prior to incubation with the radiolabeled probe for 30 min at 30° C. before subjecting to EMSA analysis. Where appropriate, bands corresponding to DNA-binding activities were scanned and quantified for each concentration of compound using ImageJ and plotted as percent of control (vehicle) against concentration of compound, from which the IC50 values were derived.

PTP1B = assay: Immunoblotting of PTP1B levels in U251MG cells; type: cell-based, human; conditions: 5 micromolar
Procedure: To further investigate into the mechanism of inhibition of STAT3 induction, effects on protein tyrosine […] (PTPs) were determined. […] Instead, the potent inhibitory effects of agents (5 micromolar) countered the robust pY705STAT3 induction by orthovanadate alone.
FIGS. 13A-13C show analyses of STAT1, STAT3, STAT5, Akt, Erk1/2, JAK2, SOCS, and PTP1B activation or STAT3-EGFR association and the effects of active hirsutinolides and sodium orthovanadate. (A-C) SDS-PAGE and Western blotting analysis of whole-cell lysates of equal total protein prepared from (A) EGF-stimulated NIH3T3/hEGFR cells pre-treated with the 5 micromolar of the designated agents for 24 h and probing for pY705STAT3, STAT3, pY701 STAT1, STAT1, pY694STAT5, STAT5 or GAPDH, or the human glioma, U251MG cells treated with 5 micromolar of the designated inhibitors for (B) 0-32 h and probing for pS-Akt, Akt, pErk1/2, Erk1/2, pJAK2, JAK2, SOCS3, PTP1B, pSTAT3, STAT3, β-actin or GAPDH; or (C) 3 h in the absence or presence of increasing concentration of Na3VO4 and probing for pSTAT3, STAT3 or GAPDH/.

[4] = system: U251MG glioblastoma cells; assay: CyQuant cell viability/proliferation assay, U251MG; type: cell-based, human; conditions: Table 1/FIG. 2 numbering
Method in brief: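 Cells plated at 2,000 per well for 24 h, then exposed 72 h to compounds at 5 micromolar in DMSO/water. Viability read by CyQuant and normalised to DMSO-treated controls.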

[5] = system: pY705STAT3 in U251MG or MDA-MB-231 cells; assay: Immunoblotting of pY705STAT3 in treated tumor cells
Procedure: Positions of STATs:DNA complexes or proteins in gel are labeled; control lanes (0) represent nuclear extracts or whole-cell lysates prepared from 0.05% DMSO-treated cells. Data are representative of at least three to four independent determinations.
Lysates of equal total protein prepared in the lysis buffer (50 mM Hepes, pH 7.5, 150 mM NaCl, 2 mM EDTA, 1% Triton X-100, 0.1% SDS), were subjected to IP or Western blotting analysis. Antibodies against STAT3, pY705STAT3, Src, pY416Src, Erk1/2, and pT202/Y204Erk1/2 and GAPDH (Cell Signaling Technology, Danvers, Mass.), and anti-β-actin, and HSP105 (Santa Cruz Biotechnology, Dallas, Tex.) are from the designated sources.
Whole-cell lysates were prepared in boiling SDS sample loading buffer to extract total proteins, as reported previously. […] Nitrocellulose membranes were probed with primary antibodies, and the detection of horseradish peroxidase-conjugated secondary antibodies by enhanced chemiluminescence (Amersham) was performed. Antibodies used were monoclonal anti-pYSTAT3 and anti-STAT3 antibodies (Cell Signaling Technology, Danvers, Mass.).

U251MG cells [6] = assay: Wound healing assay for migration; type: cell-based, human; conditions: 0-5 micromolar, 19 h, viability unaffected
Procedure: Viable cell numbers at 19 h post-treatment were counted and are represented (right panel). Values are the mean and S.D. of 3-4 independent determinations. Data are representative of 3 independent determinations.
This assay was performed as previously reported. (Xu, Y., supra). Briefly, subconfluent cultures of U251MG cells in 6-well plates were wounded using pipette tips and treated with compound or vehicle (DMSO) and allowed to migrate into the denuded area over a 19 h period. The migration of cells was visualized at a 10× magnification using an Axiovert 200 inverted fluorescence microscope (Zeiss), with pictures taken using a mounted Canon Powershot A640 digital camera.

U251MG cells [7] = assay: Colony survival assay, U251MG; type: cell-based, human
Procedure: The effect of the isolated or synthesized compounds in a colony survival assay was performed.
This assay was performed as previously reported (Xu, Y., supra). The assay was performed as previously reported. Briefly, cells were seeded as single-cell in 6-well plates (250 cells per well), treated once the next day with compounds for 72 h, and allowed to grow until large colonies were visible. Colonies were stained with crystal violet for 4 h and counted with FluorChem imaging system (Protein Simple, Santa Clara, Calif.).

**Q.** What does the source list for “(4S,6R,E)-4,7-dihydroxy-6,10-dimethyl-2-oxo-2,4,5,6,7,8,9,10-octahydro-7,10-epoxycyclodeca[b]furan-3-yl)methyl(E)-2-methylbut-2-enoate [Compound 22]”?
**A.** Effect on EGF-induced pSTAT5 (pSTAT5): no effects; Activity against 3T3 [1]: +/−; Activity against 231 [2]: +; Effect on EGF-induced pSTAT1 (pSTAT1): no effects; Inhibition of STAT3 DNA-binding activity in vitro (EMSA) [3]: strong inhibition; Effect on PTP1B levels (PTP1B): little or no effects; IC50 ([4]; 72-h treatment, read-out: IC50 for the inhibition of U251MG cell viability): 2600 nM; Cell-type selectivity of growth inhibition, in words ([4]; U251MG versus other cells incl. NIH3T3): selective against the growth of human glioma U251MG cells; Effect on pY705STAT3 / STAT3 activity (immunoblot), in words ([5]; 5 micromolar, 0-24 h, U251MG or MDA-MB-231, Table 1/FIG. 2 numbering): early inhibition at 15-30 min; pY705STAT3 inhibition in combination with sodium orthovanadate ([5]; U251MG, 5 micromolar compound, 10-300 micromolar orthovanadate, 3 h): failed to overcome the inhibitory effect; Cell migration into the denuded area (U251MG cells [6]): suppressed the numbers of U251 cells migrating into the denuded area; Preferential effect on colony survival of U251MG and MDA-MB231 over MCF-7 (U251MG cells [7]): 2.5 fold
